Experimental data published in patent US9814758B2, “Inhibitors of apoptosis and uses thereof” (CENTRE NATIONAL DE LA RECHERCHE SCIENTIFIQUE-CNRS, priority 2010, dated 2017).
“Also recorded” adds a separate entry of the source. No end group written: not given here.

Legend:
[1] = target: T1, His-tagged intracellular region of Fas receptor (Homo sapiens, UniProt P25445); test: SPOT peptide array, enzyme-linked blot with His-tagged Fas; assay type: binding; conditions: Fas 10 μg/ml, anti-His/anti-mouse-HRP
T1 construct: His-tagged intracellular region of Fas receptor [10 μg/ml]; purchased Sigma
T1 sequence (P25445 191-335 limits assumed): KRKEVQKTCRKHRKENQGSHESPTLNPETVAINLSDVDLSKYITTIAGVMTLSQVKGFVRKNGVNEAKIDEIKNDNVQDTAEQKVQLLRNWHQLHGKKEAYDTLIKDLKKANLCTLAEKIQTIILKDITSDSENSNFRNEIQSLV
Procedure: FIG. 1: Determination of the DAXX epitope by SPOT synthesis. (A) The amino acid sequence of DAXX was dissected in overlapping peptide arrays (pepscan; 15 mer peptides with a shift of 3 amino acids) and analyzed in enzyme-linked blot. […] Incubation conditions: His-tagged intracellular region of Fas receptor [10 μg/ml]; antibodies: anti-His-(mouse) (Sigma H1029; 1:6,000)/anti-mouse-HRP (Calbiochem 401207; 1:2,000), exposure time: 1 minute. (B) Alignment of the human DAXX sequence comprising the 16-mer KKSRKEKKQTGSGPLG (=DAXXp of SEQ ID NO: 5) with the DAXX sequences of other species (mouse, rat, dog (CANFA) and green monkey (CHLAE)).
FIG. 2: Determination of the optimal length of the DAXX epitope (=DAXXp) by SPOT synthesis. (A) The DAXXp-211 and DAXXp-209 peptides (of SEQ ID NO: 2 and SEQ ID NO: 3, respectively) were successively shortened by one amino acid residue at the N-terminus, at the C-terminus and both at the N- and the C-termini, and analyzed using enzyme-linked blot. […] Incubation conditions: His-tagged intracellular region of Fas receptor [10 μg/ml]; antibodies: anti-His-(mouse) (Sigma H1029; 1:6,000)/anti-mouse-HRP (Calbiochem 401207; 1:2,000), exposure time: 1 minute. (B) Alignment of both peptide sequences DAXXp-211 and DAXXp-209; corresponding to the brightest spots, to determine the optimal DAXX peptide sequence.
FIG. 8: Determination of FADDp15 and its anti-apoptotic effect in cardiomyocytes. (A) The protein sequences of FADD were dissected in overlapping peptide arrays (pepscan; 15 mer peptides with a shift of 3 amino acids) and analyzed using enzyme-linked blot. […] (B) The peptide sequence of FADDp-11 (=FADDp15=SEQ ID NO: 9) was successively shortened by one amino acid residue at the C-terminus, the N-terminus, or at both the C-terminus and the N-terminus, and analyzed using enzyme-linked blot. […] The shortest FADD epitope (a 9-mer with sequence KRKLERVQS (=FADDp=SEQ ID NO: 12)) corresponded to spot No. 24. Incubation conditions: His-tagged intracellular region of Fas receptor [10 μg/ml]; antibodies: anti-His-(mouse) (Sigma H1029; 1:6,000)/anti-mouse-HRP (Calbiochem 401207; 1:2,000), exposure time: 1 minute.
The peptides were synthesized on N-modified CAPE-membranes (Bhargava et al, Mol. Recognit, 2002, 15: 145) and prepared by a MultiPep SPOT-robot (INTAVIS Bioanalytical Instruments AG, Cologne, Germany). Array design was performed with the aid of the in-house software LISA 1.71. The synthesis started with spot definition using a standard protocol [Frank, Tetrahedron, 1992, 48: 9217), followed by the coupling of a solution of Fmoc-cysteine-(Trt)-Opfp (0.3M) in N-methylpyrolidone (NMP) and Fmoc-alanine-Opfp (double coupling, 15 min reaction each). After Fmoc cleavage with piperidine in DMF (20%), 4-hydroxymethylphenoxyacetic acid (HMPA) dissolved in dimethylformamide (DMF, 0.6M solution) and activated with EEDQ (1.1 equiv) was added, and samples were directly spotted on the membrane (4× coupling, 15 min reaction each). The membrane was acetylated with acetic anhydride in DMF (2%), washed with DMF (5×3 min), ethanol (2×3 min), and diethyl ether (2×3 min), and finally air dried. Solutions of Fmoc-amino acid-OH (0.4M) activated with 1,1′-carbonyldiimidazole (CDI, 3 equiv) in DMF were spotted on the membrane (4× coupling, 15 min reaction time each). Proline, tyrosine, and glutamine were activated with 1,1′-carbonyldi(1,2,4-triazole) (CDT). The Fmoc group was removed from the spots, and the peptide sequences were completed using the standard SPOT synthesis protocol (Frank, Tetrahedron, 1992, 48: 9217) followed by a N-terminal tag with β-alanine.
The primary sequence of the DAXX protein (SEQ ID NO: 1) was dissected in overlapping 15 mer peptides (3 amino acids shift) and all the peptides (243 peptides) were synthesized on cellulose membrane by SPOT synthesis as described above. The peptide library was incubated with the His-tagged intra-cellular region of the Fas receptor (Sigma). […]

[2] = system: primary cardiomyocytes; test: STS-induced DNA fragmentation (Cell Death detection ELISA PLUS) in primary cardiomyocytes; assay type: cell-based, mouse; conditions: for ability to decrease cell apoptosis / protect the cells: against STS; for reduction of DNA fragmentation: peptide given together with staurosporine, 1 μM, related to STS-treated cells (=100%), FIG. 5B
Procedure: FIG. 5: In vitro evaluation of the anti-apoptotic activity of CPPs and CPP-conjugates. Workflow and quantitation of DNA fragmentation in (A) C2C12 cells, (B) primary cardiomyocytes, (C) H9c2 cells and (D) NG108-15 cells. Data were normalized to 100% STS. Data shown are the means±SEM, with n≧5. Cells were seeded in 24-well plates and grown overnight. The next day, the cells were incubated with STS alone or with STS+1 μM peptide (in OPTI-MEM) (OPTI-MEM® is a modification of Eagle's Minimum Essential Media, buffered with HEPES and sodium bicarbonate, and supplemented with hypoxanthine, thymidine, sodium pyruvate, L-glutamine, trace elements, and growth factors) (STS concentration and incubation time for each cells are given in the figure). Thereafter, solutions were removed, replaced by complete medium and further incubated for 40 h. Following the regeneration phase, the cells were lyzed and DNA fragmentation was detected according to manufacturer's instructions (Cell Death detection ELISA^PLUS kit—Roche Diagnostics).
FIG. 6: Anti-apoptotic activity of variants of the Tat-DAXXp sequence on primary cardiomyocytes. As described in the caption of FIG. 5, the different analogues of the DAXXp sequence (see Table 2) were assessed for anti-apoptotic properties against STS (Cell Death detection ELISA^PLUS kit—Roche Diagnostics) (A-B). None of the analogues were able to protect the primary cardiomyocytes—a fact which confirms that the 16mer DAXXp has the optimal length and sequence for highest cardioprotective effect.
FIG. 7: Comparison of the murine/rat DAXXp with the human DAXXp sequence in terms of anti-apoptotic activity on C2C12 cells, primary cardiomyocytes, and H9c2. The murine DAXXp sequence conjugated to Tat (Tat-mDAXXp—SEQ ID NO: 61) which is identical to the rat DAXXp sequence (see FIG. 1B), was compared to the human construct (Tat-DAXXp) in terms of anti-apoptotic properties against STS (Cell Death detection ELISA^PLUS kit—Roche Diagnostics). The C2C12 cells and the primary cardiomyocytes used were from mice and the H9c2 cells from rat.
FIG. 9: Comparison of FADDp constructs with Tat-DAXXp in terms of anti-apoptotic activity in primary cardiomyocytes and in H9c2 cells. Quantification of DNA normalized to 100% STS. Data shown are the means±SEM, with n≧5. Cells were seeded in 24-well plates and grown overnight. The next day, the cells were incubated with STS alone or with STS+1 μM peptide (in OPTI-MEM®) (OPTI-MEM® is a modification of Eagle's Minimum Essential Media, buffered with HEPES and sodium bicarbonate, and supplemented with hypoxanthine, thymidine, sodium pyruvate, L-glutamine, trace elements, and growth factors) (STS concentration is given in the figure and incubation time is given in FIG. 5). Thereafter, solutions were removed, replaced by complete medium and further incubated for 40 hours. Following the regeneration phase, the cells were lyzed and DNA fragmentation was detected according to manufacturer's instructions (Cell Death detection ELISA^PLUS kit—Roche Diagnostics).
FIG. 10: Comparison of Tat-DAXXp and Tat-FADDp15 alone and in combination in primary cardiomyocytes (A) and in H9c2 cells (B).
Thereafter, the capacity of these peptides to inhibit apoptosis induced by staurosporine was evaluated. Apoptosis was determined using the Cell Death detection ELISA^PLUS kit (Roche) measuring the DNA fragmentation.
In most publications, anti-apoptotic peptides currently available in the art are administrated 3-4 hours prior to apoptosis induction, which is poorly relevant to a clinical application. For that reason, the protocol used in the present study included administration of the peptides together with the staurosporine. […] This was not observed with CPP alone or with the Tat-scrDAXXp or Tat-ncDAXXp negative controls. […] To better compare the results, the DNA fragmentation (described by the enrichment factor) is related to the staurosporine-treated cells (=100%).

[3] = system: C57Bl6 mice, myocardial ischemia-reperfusion; test: Myocardial ischemia-reperfusion IR60' (40 min ischemia, 60 min reperfusion); assay type: in vivo, mouse; conditions: IR60'; data not shown
Procedure: FIG. 11: In vivo experimental protocol. C57Bl6 mice underwent a surgical protocol of myocardial ischemia-reperfusion (IR). The black box represents the period of ischemia to which the mice were submitted. Infarct size or cell death measurements were performed at the end of surgery for each protocol (indicated by ↑). IR60′: 40 minutes of Ischemia, 60 minutes of Reperfusion. IR24h: 40 minutes Ischemia and 24 hours Reperfusion.
FIG. 12: Cardioprotective effects of Tat-DAXXp (1 mg/kg—IV) in mice subjected to IR60′. Infarct size (in % of area at risk) and internucleosomal DNA fragmentation determined by ELISA were quantified in mice subjected to IR60′ and treated with Tat, Tat-DAXXp or Tat-scrDAXXp (1 mg/kg) as well as with DAXXp (10 mg/kg) (intravenous injection (IV) 5 minutes before reperfusion). Means±SEM were plotted for (A): Area at risk/LV mass (left ventricle), (B): Infarct size (in % of area at risk) and (C): (I/NI ratio) corresponding to the ratio of soluble nucleosome in the ischemic portion versus the non-ischemic portion of LV tissues. Statistical analysis was performed using One-way ANOVA with Neuman-Keuls post test for multiple comparisons (GraphPad Prism software). P<0.05, P<0.01 and P<0.001 versus Tat-DAXXp were noted *, **, and *** respectively. P=ns (not significant) for P>0.05.
FIG. 13: Dose response for Tat-DAXXp and DAXXp in mice subjected to IR60′. Infarct size (in % of area at risk) and internucleosomal DNA fragmentation determined by ELISA were quantified in mice subjected to IR60′ and treated with Tat (1 mg/kg), Tat-DAXXp (0.1, 1 and 10 mg/kg) or DAXXp (0.1, 1 and 10 mg/kg) injected intravenously 5 minutes before reperfusion. Means±SEM were plotted for (A): Area at risk/LV mass (left ventricle), (B): Infarct size (in % of area at risk) and (C): (I/NI ratio) corresponding to the ratio of soluble nucleosome in the ischemic versus the non-ischemic portion of LV tissues.
In a second step, the cardioprotective effects of DAXXp were evaluated in an in vivo model of myocardial ischemia-reperfusion. Acute myocardial ischemia and reperfusion were performed in C57Bl6 mice subjected to a surgical model of reversible coronary occlusion. Male mice (22-28 g) were anesthetized and ventilated via a tracheal intubation using a Harvard rodent respirator. Body temperature was maintained between 36.8° C. and 37.0° C. via a thermo-regulated surgical table. The chest was opened by left lateral thoracotomy and a reversible coronary artery snare occluder was placed around the left coronary artery. Mice were randomly allocated to two different surgical protocols of myocardial ischemia-reperfusion (FIG. 11). At the end of reperfusion, the artery was re-occluded and phtalocyanine blue dye was injected into the left ventricle cavity and allowed to perfuse the non-ischemic portions of the myocardium. To determine the effect of DAXXp on myocardial infarct size, peptides were administered intravenously (caudal vein) 5 minutes before reperfusion during the surgical protocol of ischemia-reperfusion. The control groups were treated with Tat or Pip2b peptide (for CPP alone). The dose of 1 mg/kg was chosen (μmolar range) and dose responses for 0.1 and 10 mg/kg were also tested.
At the end of reperfusion, mice were re-anaesthetized, the coronary ligature definitively tightened, the blue dye injected and the harvested left ventricles were dedicated to infarct size (TTC method, Schwartz et al, J Thromb. Thromb., 2000; 10: 181-187) or DNA fragmentation measurements (Cell death detection ELISA^PLUS kit, Roche Diagnostics) in order to investigate the cardioprotective effects against ischemia-reperfusion injuries.

Row | Substance | interaction with the Fas receptor / signal intensity of the spot [1] | interaction with the Fas receptor / signal intensity of the spot ([1]; listed as Spot No. 211) | ability to decrease cell apoptosis / protect the cells [2] | reduction of DNA fragmentation [2] | cardioprotection (infarct size, DNA fragmentation) [3]
1 | GRKKRRQRRRPPQ-AKLYVYINELCTVLK-NH2 [Tat-ncDAXXp] | – | – | – | not observed | –
2 | GRKKRRQRRRPPQ-KKGRKQSGESLGTPKK-NH2 (GRKKRRQRRRPPQKKGRKQSGESLGTPKK-NH2) [Tat-scrDAXXp, negative control; scrambled version of DAXXp conjugated to Tat] | – | – | – | not observed | not observed
3 | KRKLERVQS (listed as Homo sapiens) [FADDp] | interact with the Fas receptor | – | decrease cell apoptosis | – | –
4 | VGKRKLERVQSGLDL (listed as Homo sapiens) [FADDp15] | higher signal intensity; also recorded: interact with the Fas receptor | – | decrease cell apoptosis | – | –

The next lines start with results.

Row | interaction with the Fas receptor / signal intensity of the spot [1] | interaction with the Fas receptor / signal intensity of the spot ([1]; listed as Spot No. 211) | Substance | ability to decrease cell apoptosis / protect the cells [2] | reduction of DNA fragmentation [2] | cardioprotection (infarct size, DNA fragmentation) [3]
5 | interact with the Fas receptor | – | DAXXp-14: fragment of the DAXX protein, amino acid sequence set forth in SEQ ID NO: 6 (SRKEKKQTGSGPLG; listed as Homo sapiens) | only DAXXp is capable of decreasing cell apoptosis | – | –
6 | interact with the Fas receptor | highest signal intensity | KSRKEKKQTGSGPLG (listed as Homo sapiens) [DAXXp-15] | only DAXXp is capable of decreasing cell apoptosis | – | –
